Experimental data as given in ChEMBL document CHEMBL1201862, “PubChem BioAssay data set” (2004).
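Values below derive from 48-hour exposures of cells grown in 96-well plates, with endpoints linearly interpolated between the two concentrations bracketing the appropriate inhibition level. The concentration for 50% growth inhibition is given as GI50.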 Calls of active or inactive are those of the source. Cut-off read from the data, not from the text of the source: active = GI50 up to about 1.1 µM and inactive = higher.

Columns and labels:
Assay in all cases: NCI anticancer screen, dose series, 48 h
SK-MEL-2 = test system: SK-MEL-2
UACC-257 = test system: UACC-257
UACC-62 = test system: UACC-62
MDA-N = test system: MDA-N
RPMI-8226 = test system: RPMI-8226
CCRF-CEM = test system: CCRF-CEM
NCI-H460 = test system: NCI-H460
HCC 2998 = test system: HCC 2998
COLO 205 = test system: COLO 205
MDA-MB-231 = test system: MDA-MB-231
SF-295 = test system: SF-295
MDA-MB-435 = test system: MDA-MB-435
MCF7 = test system: MCF7
OVCAR-8 = test system: OVCAR-8
SK-MEL-28 = test system: SK-MEL-28
786-0 = test system: 786-0
SF-539 = test system: SF-539
M14 = test system: M14
SK-OV-3 = test system: SK-OV-3
SR = test system: SR

## CCCn1c2c(c3ccccc3c1=O)C(=O)c1ccccc1-2
SK-MEL-2
  GI50: > 100 µM (inactive)
UACC-257
  GI50: > 100 µM (inactive)
UACC-62
  GI50: > 100 µM (inactive)
MDA-N
  GI50: > 100 µM (inactive)
RPMI-8226
  GI50: > 28.8 µM (inactive)
CCRF-CEM
  GI50: > 56.2 µM (inactive)
NCI-H460
  GI50: 7.23 µM (inactive)
HCC 2998
  GI50: > 100 µM (inactive)
COLO 205
  GI50: > 54.6 µM (inactive)
MDA-MB-231
  GI50: > 40.4 µM (inactive)
SF-295
  GI50: > 80.5 µM (inactive)
MDA-MB-435
  GI50: > 100 µM (inactive)
MCF7
  GI50: > 42.4 µM (inactive)
OVCAR-8
  GI50: 61.1 µM (inactive)
SK-MEL-28
  GI50: > 68.9 µM (inactive)
786-0
  GI50: 16.4 µM (inactive)
SF-539
  GI50: > 55.2 µM (inactive)
M14
  GI50: 68.1 µM (inactive)
SK-OV-3
  GI50: > 100 µM (inactive)
SR
  GI50: 5.14 µM (inactive)

## Cc1ccc(S(=O)(=O)n2c3c(c4ccccc42)CCN2CCC(Br)C[C@@H]32)cc1 (stereo not given in full)
SK-MEL-2
  GI50: 16.3 µM (inactive)
UACC-257
  GI50: 7.23 µM (inactive)
UACC-62
  GI50: 11.9 µM (inactive)
MDA-N
  GI50: 4.42 µM (inactive)
RPMI-8226
  GI50: 6.18 µM (inactive)
CCRF-CEM
  GI50: 12.2 µM (inactive)
NCI-H460
  GI50: 14.9 µM (inactive)
HCC 2998
  GI50: 15 µM (inactive)
COLO 205
  GI50: 16.3 µM (inactive)
MDA-MB-231
  GI50: 16.5 µM (inactive)
SF-295
  GI50: 11 µM (inactive)
MDA-MB-435
  GI50: 3.79 µM (inactive)
MCF7
  GI50: 9.42 µM (inactive)
OVCAR-8
  GI50: 12.6 µM (inactive)
SK-MEL-28
  GI50: 11.9 µM (inactive)
786-0
  GI50: 16.6 µM (inactive)
SF-539
  GI50: 16.7 µM (inactive)
M14
  GI50: 12.9 µM (inactive)
SK-OV-3
  GI50: 15.7 µM (inactive)
SR
  GI50: 5.11 µM (inactive)

## Nc1nc(Sc2ccc([N+](=O)[O-])c3nonc23)c2nc[nH]c2n1
SK-MEL-2
  GI50: 1.06 µM (active)
UACC-257
  GI50: 2.13 µM (inactive)
UACC-62
  GI50: 0.43 µM (active)
MDA-N
  GI50: 0.91 µM (active)
RPMI-8226
  GI50: 0.31 µM (active)
CCRF-CEM
  GI50: 0.191 µM (active)
NCI-H460
  GI50: 0.627 µM (active)
HCC 2998
  GI50: 1.08 µM (active)
COLO 205
  GI50: 1.61 µM (inactive)
MDA-MB-231
  GI50: 0.731 µM (active)
SF-295
  GI50: 0.701 µM (active)
MDA-MB-435
  GI50: 0.59 µM (active)
MCF7
  GI50: 0.593 µM (active)
OVCAR-8
  GI50: 0.721 µM (active)
SK-MEL-28
  GI50: 10.5 µM (inactive)
786-0
  GI50: 0.489 µM (active)
SF-539
  GI50: 1.53 µM (inactive)
M14
  GI50: 0.363 µM (active)
SK-OV-3
  GI50: 0.425 µM (active)
SR
  GI50: 0.0822 µM (active)

## O=C(O)c1nn(-c2ccccc2-c2nnc(O)nc2O)c(=O)[nH]c1=O
SK-MEL-2
  GI50: > 100 µM (inactive)
UACC-257
  GI50: > 100 µM (inactive)
UACC-62
  GI50: > 100 µM (inactive)
MDA-N
  GI50: > 100 µM (inactive)
RPMI-8226
  GI50: > 100 µM (inactive)
CCRF-CEM
  GI50: 51.8 µM (inactive)
NCI-H460
  GI50: > 100 µM (inactive)
HCC 2998
  GI50: > 100 µM (inactive)
COLO 205
  GI50: > 100 µM (inactive)
MDA-MB-231
  GI50: > 100 µM (inactive)
SF-295
  GI50: > 100 µM (inactive)
MDA-MB-435
  GI50: > 100 µM (inactive)
MCF7
  GI50: > 100 µM (inactive)
OVCAR-8
  GI50: > 100 µM (inactive)
SK-MEL-28
  GI50: > 100 µM (inactive)
786-0
  GI50: > 100 µM (inactive)
SF-539
  GI50: > 100 µM (inactive)
M14
  GI50: > 100 µM (inactive)
SK-OV-3
  GI50: > 100 µM (inactive)
SR
  GI50: > 100 µM (inactive)

## O=C1/C(=C/c2ccncc2)C(n2cccc2)c2c(Br)sc(Br)c21 (stereo not given)
SK-MEL-2
  GI50: 2.46 µM (inactive)
UACC-257
  GI50: 2.1 µM (inactive)
UACC-62
  GI50: 2.94 µM (inactive)
MDA-N
  GI50: 2.52 µM (inactive)
RPMI-8226
  GI50: 2.02 µM (inactive)
CCRF-CEM
  GI50: 0.671 µM (active)
NCI-H460
  GI50: 4.39 µM (inactive)
HCC 2998
  GI50: 1.88 µM (inactive)
COLO 205
  GI50: 10.4 µM (inactive)
MDA-MB-231
  GI50: 2.25 µM (inactive)
SF-295
  GI50: 13.3 µM (inactive)
MDA-MB-435
  GI50: 2.11 µM (inactive)
MCF7
  GI50: 3.85 µM (inactive)
OVCAR-8
  GI50: 2.28 µM (inactive)
SK-MEL-28
  GI50: 2.65 µM (inactive)
786-0
  GI50: 3.41 µM (inactive)
SF-539
  GI50: 3.87 µM (inactive)
M14
  GI50: 0.263 µM (active)
SK-OV-3
  GI50: 7.78 µM (inactive)
SR
  GI50: 2.58 µM (inactive)

## COc1c(O)ccc(C2=Cc3ccc(O)cc3OC2)c1OC
SK-MEL-2
  GI50: 23.4 µM (inactive)
UACC-257
  GI50: 30.3 µM (inactive)
UACC-62
  GI50: 16.2 µM (inactive)
MDA-N
  GI50: 3.68 µM (inactive)
RPMI-8226
  GI50: 3.51 µM (inactive)
CCRF-CEM
  GI50: 4.37 µM (inactive)
NCI-H460
  GI50: 31 µM (inactive)
HCC 2998
  GI50: 21 µM (inactive)
COLO 205
  GI50: 28.2 µM (inactive)
MDA-MB-231
  GI50: 20.7 µM (inactive)
SF-295
  GI50: 22.8 µM (inactive)
MDA-MB-435
  GI50: 7.64 µM (inactive)
MCF7
  GI50: 32.4 µM (inactive)
OVCAR-8
  GI50: 18 µM (inactive)
SK-MEL-28
  GI50: 34.3 µM (inactive)
786-0
  GI50: 16.3 µM (inactive)
SF-539
  GI50: 16.3 µM (inactive)
M14
  GI50: 21 µM (inactive)
SK-OV-3
  GI50: 24 µM (inactive)
SR
  GI50: 2.15 µM (inactive)

## COc1nc(-c2c[nH]c3ccccc23)cnc1N
SK-MEL-2
  GI50: 25 µM (inactive)
UACC-257
  GI50: 22.4 µM (inactive)
UACC-62
  GI50: 16.4 µM (inactive)
MDA-N
  GI50: 18.4 µM (inactive)
RPMI-8226
  GI50: 1.01 µM (active)
CCRF-CEM
  GI50: 0.809 µM (active)
NCI-H460
  GI50: 26.4 µM (inactive)
HCC 2998
  GI50: 67.9 µM (inactive)
COLO 205
  GI50: 29 µM (inactive)
MDA-MB-231
  GI50: 18.1 µM (inactive)
SF-295
  GI50: 29.4 µM (inactive)
MDA-MB-435
  GI50: 23.4 µM (inactive)
MCF7
  GI50: 2.85 µM (inactive)
OVCAR-8
  GI50: 31.5 µM (inactive)
SK-MEL-28
  GI50: 25.5 µM (inactive)
786-0
  GI50: 15.6 µM (inactive)
SF-539
  GI50: 33.7 µM (inactive)
M14
  GI50: 30.1 µM (inactive)
SK-OV-3
  GI50: 30.9 µM (inactive)
SR
  GI50: 15 µM (inactive)
